In patent publication US20040023861A1, “Cysteinyl leukotriene receptor 2 (cysl t2)” (priority 2000, published 2004):
Each block holds one compound with its values, some of them ahead of it.

Columns and labels:
CysLT1 = biological target: T1, CysLT1 (Homo sapiens, UniProt Q9Y271); assay: Antagonist activity against 20 nM LTD4 (NFAT luciferase reporter gene assay and FLIPR assay) at CysLT1; assay type: cell-based; settings: concentration dependent inhibition of 20 nM LTD4; reporter gene and FLIPR assays
T1 construct: expressed in transfected cells; host or cells: CHO cells with stably integrated NFAT-luciferase reporter (CHONFAT)
T1 sequence (Q9Y271 1-337): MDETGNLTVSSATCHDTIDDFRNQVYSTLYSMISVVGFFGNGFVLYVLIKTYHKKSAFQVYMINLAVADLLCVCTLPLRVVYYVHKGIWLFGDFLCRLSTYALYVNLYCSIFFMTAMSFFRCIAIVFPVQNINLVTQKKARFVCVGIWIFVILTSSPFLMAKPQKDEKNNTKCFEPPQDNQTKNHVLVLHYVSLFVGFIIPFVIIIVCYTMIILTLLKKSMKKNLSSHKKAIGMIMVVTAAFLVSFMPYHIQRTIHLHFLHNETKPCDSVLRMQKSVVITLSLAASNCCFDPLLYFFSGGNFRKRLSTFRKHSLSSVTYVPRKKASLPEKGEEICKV

anesthetized rats = assay: Effect of LTD4 on hemodynamics and ECG parameters in anesthetized rats; assay type: in vivo
Protocol: Adult male wistar rats (270-300 g) were used. On arrival in the animal care unit, rats were housed with free access to food and water. Room temperature (19-20° C.), relative humidity (55-60%) and light (switched on 7:00am-7:00pm) were maintained constant. An adaptation period of at least 6 days was respected before experimentation.
Aninals (n=3-4) were anesthetized by administration of pentobarbital (50/60 mg/kg, i.v.). Then, animals were placed on a heatcd (36° C.) operating table and ventilated with room air (Harvard respirator, 50-52 str/min, 7 ml/kg tidal volume). Systemic arterial blood pressure was monitored routinely from the left carotid artery (P23XL, Gould). Body temperature was controlled with a thermistor probe (Digi-sense, Cole-Parmer) and maintained within physiological range throughout the experiment by heating when necessary. A Lead 11 ECG was recorded via needle electrodes to evaluate ECG intervals and heart rate and a corrected QT interval by linear regression (QTL) was calculated according to Todt(13). All parameters were monitored on a Gould thermal array polyrecorder.
The volume of injection was normalized to 1 ml/kg. In rats receiving CysLT1 antagonists as pretreatment, the compounds were previously dissolved in ethanol (2% final concentration) or distilled water and mixed in encapsin 6% for intragastric afministration (single dose of 3 μmol/kg-10 ml/kg total volume).
Results were expressed as mean±SEM Hemodynamic and electrocardiographic variables were compared using Anova followed by multiple comparisons tests (Newmam Keuls or Tukey's test as appropriate). Values of p <0.05 were considered significant.

HIPHUM0000007 = biological target: T2, HIPHUM0000007 (Homo sapiens, UniProt Q9NS75); assay: Antagonist activity against 20 nM LTD4 (NFAT luciferase reporter gene assay and FLIPR assay) at HIPHUM0000007; assay type: cell-based; settings: concentration dependent inhibition of 20 nM LTD4; reporter gene and FLIPR assays
T2 construct: expressed in transfected cells; host or cells: CHO cells with stably integrated NFAT-luciferase reporter (CHONFAT)
T2 sequence (Q9NS75 1-346): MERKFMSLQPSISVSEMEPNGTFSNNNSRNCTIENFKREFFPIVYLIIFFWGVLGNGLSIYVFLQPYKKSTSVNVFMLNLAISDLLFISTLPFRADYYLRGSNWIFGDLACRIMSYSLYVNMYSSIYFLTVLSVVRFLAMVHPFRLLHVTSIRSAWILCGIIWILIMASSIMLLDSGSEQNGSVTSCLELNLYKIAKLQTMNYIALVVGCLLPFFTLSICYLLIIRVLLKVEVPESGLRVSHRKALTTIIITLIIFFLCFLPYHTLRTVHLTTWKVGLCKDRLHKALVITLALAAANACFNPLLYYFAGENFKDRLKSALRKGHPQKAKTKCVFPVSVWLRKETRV

antagonist activity at CysLT1 (CysLT1): acted as antagonists
SMILES: COc1cc(C(=O)NS(=O)(=O)c2ccccc2C)ccc1Cc1cn(C)c2ccc(NC(=O)OC3CCCC3)cc12 [Zafirlukast]

SMILES: CCCCC/C=C\C\C=C/C=C/C=C/[C@@H](SC[C@H](N)C(=O)NCC(=O)O)[C@@H](O)CCCC(=O)O [LTD4]
effect on blood pressure (anesthetized rats; LTD4 i.v. injection 20, 40 and 100 nmol/kg, anesthetized rats): affected blood pressure in a dose-dependent manner | reduction in heart rate (anesthetized rats; bolus intravenous administration of LTD4, anesthetized rats): 20-30% | rhythm disturbances (arrhythmias) (anesthetized rats; repeated administration of LTD4, doses in the range of 40 to 60 nmol/kg, anaesthetised rats): induced marked rhythm disturbances

SMILES: CN(C)C(=O)CCSC(SCCC(=O)O)c1cccc(/C=C/c2ccc3ccc(Cl)cc3n2)c1 (stereo not drawn) [MK571]
effect of CysLT1 antagonist on LTD4 response on blood pressure (anesthetized rats; antagonist 3 μmol/kg oral 10 min or 0.3 μmol/kg i.v. 5 min before LTD4 i.v., anesthetized rats): modest partial inhibition | effect of pretreatment on LTD4-induced reduction in heart rate (anesthetized rats; pretreatment with CysLT1 antagonist before LTD4 i.v., anesthetized rats): not significantly altered

antagonist activity at HIPHUM0000007 (HIPHUM0000007): inactive
SMILES: CC(C)(O)c1ccccc1CC[C@@H](SCC1(CC(=O)O)CC1)c1cccc(/C=C/c2ccc3ccc(Cl)cc3n2)c1 [Montelukast]

antagonist activity at HIPHUM0000007 (HIPHUM0000007): low potency | antagonist activity at CysLT1 (CysLT1): low potency
SMILES: CCCCC/C=C\C\C=C/C=C/C=C/[C@@H](Sc1ccc(C(=O)O)cc1)[C@@H](O)CCCC(=O)O [BayU9773]
